Experimental data: patent publication US20240173319A1, “SOLID DOSE PHARMACEUTICAL COMPOSITION” (Sumitomo Pharma Oncology, Inc., priority 2019, published 2024)

Columns and labels:
Type in all cases: physicochemical
[1] = Log D (pH 7.4) of the API
Experimental: The hydrochloride salt of the compound of formula (I) was formulated into three (3) oral dose strengths (5, 25, and 125 mg dose [based on free base]). The physicochemical properties of the compound of formula (I), the active pharmaceutical ingredient (API), are summarized in Table 1.

[2] = Solubility of the API in media
Experimental: The solubility of the API was tested. In all media, solubility of the compound is good, namely the maximum tested dose of 125 mg was found soluble in 250 mL of media. […] This characterization may not be accurate for larger doses. Reference is made to Table 2.

[3] = Excipient compatibility study, related substances (unknown RRT)
Experimental: An initial excipient compatibility study was performed.
In the compatibility study, all the samples were evaluated for two (2) primary properties: appearance and related substances.
(close) for 4W with respect to their related substance profile.

[4] = 40° C./75% RH, open glass vial, 4 week

- logD [1]: 2.66
- Maximum dose mg solubility in 250 ml ([2]; 0.1N HCl): 256 mg
- solubility ([2]; 0.1N HCl, pH 1.005, simulated gastric fluid): 1030 µg/mL
- Maximum dose mg solubility in 250 ml ([2]; Water): 252 mg
- Solubility characterization with reference to BCS classification ([2]; maximum tested dose of 125 mg in 250 mL of media): highly soluble
- Maximum dose mg solubility in 250 ml ([2]; pH 4.5 Acetate buffer): 253 mg
- solubility ([2]; pH 4.5 acetate buffer, pH 4.508, aqueous buffer): 1010 µg/mL
- Maximum dose mg solubility in 250 ml ([2]; pH 6.8 Phosphate buffer): 245 mg
- solubility ([2]; pH 6.8 phosphate buffer, pH 6.812, aqueous buffer): 980 µg/mL
- solubility ([2]; water, pH 6.213, water): 1010 µg/mL
- Total (related substances) [3, 4]: 0.84%
- Unknown RRT 0.162 [3, 4]: 0.11%
- Unknown RRT 0.866 [3, 4]: BQL
- Unknown RRT 0.989 [3, 4]: BQL
- Unknown RRT 1.046 [3, 4]: BQL
- Unknown RRT 1.07 [3, 4]: 0.07%
- Unknown RRT 1.08 [3, 4]: 0.05%
- Unknown RRT 1.341 [3, 4]: 0.2%
- Unknown RRT 1.38 [3, 4]: 0.1%
- Unknown RRT 1.549 [3, 4]: 0.19%
- Unknown RRT 1.633 [3, 4]: 0.12%
- Total (related substances) ([3]; Initial): 0.93%
- Unknown RRT 0.162 ([3]; Initial): 0.12%
- Unknown RRT 0.989 ([3]; Initial): BQL
- Unknown RRT 1.046 ([3]; Initial): BQL
- Unknown RRT 1.07 ([3]; Initial): 0.07%
- Unknown RRT 1.08 ([3]; Initial): 0.06%
- Unknown RRT 1.341 ([3]; Initial): 0.27%
- Unknown RRT 1.38 ([3]; Initial): 0.08%
- Unknown RRT 1.549 ([3]; Initial): 0.21%
- Unknown RRT 1.633 ([3]; Initial): 0.12%
SMILES: COc1cc(Nc2nccc(Nc3cccnc3-c3ccccn3)n2)ccc1N1CCN(C)CC1.Cl [API, N2-[3-methoxy-4-(4-methylpiperazin-1yl)phenyl]-N4-[2-(pyridin-2-yl)pyridin 3-yl] pyrimidine-2,4-diamine hydrochloride]
